# Patent US20170050957A1, “4-AMINO-6-(HETEROCYCLIC)PICOLINATES AND 6-AMINO-2-(HETEROCYCLIC)PYRIMIDINE-4-CARBOXYLATES AND THEIR USE AS HERBICIDES” (Dow AgroSciences LLC, priority 2013, published 2017)
# Read-outs that look alike come from different tables or passages of the source.
# What was measured:
# [1] = tested on: Key Grass and Sedge Weeds as well as Grass Crops; test: Post-emergent Test II herbicidal activity (Table 16); format: in vivo; settings: post-emergence, 336 h, 14 days after application; for pest or weed control at 35 g/ha: 35 g ai/ha; for pest or weed control at 70 g/ha: 70 g ai/ha; for pest or weed control at 140 g/ha: 140 g ai/ha
# Procedure, shortened: (§1)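 Herbicidal effect scored as percent visual injury, 14 d after post-emergent application. Spray solutions contained acetone, DMSO, isopropyl alcohol, crop oil concentrate and surfactant, applied at 187 L/ha to young plants (1-2 true leaves).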
# [2] = tested on: Key Broadleaf Weed and Crop Species; test: Post-emergent Test II herbicidal activity (Table 15); format: in vivo; settings: post-emergence, 336 h, 14 d; for pest or weed control at 35 g/ha: 35 g ai/ha; for pest or weed control at 70 g/ha: 70 g ai/ha; for pest or weed control at 140 g/ha: 140 g ai/ha
# Procedure, shortened: as §1
# [3] = Cyperus esculentus, yellow nutsedge (Cyperus esculentus), read-out: Visual Growth Reduction (%) 14 Days After Application CYPES
# [4] = Echinochloa crus-galli, barnyardgrass (Echinochloa crus-galli), read-out: Visual Growth Reduction (%) 14 Days After Application ECHCG
# [5] = Oryza sativa, rice (Oryza sativa), read-out: Visual Growth Reduction (%) 14 Days After Application ORYSA
# [6] = Setaria faberi, giant foxtail (Setaria faberi), read-out: Visual Growth Reduction (%) 14 Days After Application SETFA
# [7] = Triticum aestivum, wheat, spring (Triticum aestivum), read-out: Visual Growth Reduction (%) 14 Days After Application TRZAS
# [8] = Zea mays, maize, corn (Zea mays), read-out: Visual Growth Reduction (%) 14 Days After Application ZEAMX
# [9] = Abutilon theophrasti, velvetleaf (Abutilon theophrasti), read-out: Visual Growth Reduction (%) 14 Days After Application, ABUTH
# [10] = Amaranthus retroflexus, redroot pigweed (Amaranthus retroflexus), read-out: Visual Growth Reduction (%) 14 Days After Application, AMARE
# [11] = Brassica napus, oilseed rape, canola (Brassica napus), read-out: Visual Growth Reduction (%) 14 Days After Application, BRSNN
# [12] = Chenopodium album, lambsquarters (Chenopodium album), read-out: Visual Growth Reduction (%) 14 Days After Application, CHEAL
# [13] = Euphorbia heterophylla, wild poinsettia (Euphorbia heterophylla), read-out: Visual Growth Reduction (%) 14 Days After Application, EPHHL
# [14] = Helianthus annuus, sunflower (Helianthus annuus), read-out: Visual Growth Reduction (%) 14 Days After Application, HELAN
SMILES,melting point [°C],"pest or weed control at 35 g/ha [1, 3] [%]","pest or weed control at 70 g/ha [1, 3] [%]","pest or weed control at 140 g/ha [1, 3] [%]","pest or weed control at 35 g/ha [1, 4] [%]","pest or weed control at 70 g/ha [1, 4] [%]","pest or weed control at 140 g/ha [1, 4] [%]","pest or weed control at 35 g/ha [1, 5] [%]","pest or weed control at 70 g/ha [1, 5] [%]","pest or weed control at 140 g/ha [1, 5] [%]","pest or weed control at 35 g/ha [1, 6] [%]","pest or weed control at 70 g/ha [1, 6] [%]","pest or weed control at 140 g/ha [1, 6] [%]","pest or weed control at 35 g/ha [1, 7] [%]","pest or weed control at 70 g/ha [1, 7] [%]","pest or weed control at 140 g/ha [1, 7] [%]","pest or weed control at 35 g/ha [1, 8] [%]","pest or weed control at 70 g/ha [1, 8] [%]","pest or weed control at 140 g/ha [1, 8] [%]","pest or weed control at 35 g/ha [2, 9] [%]",other results
COC(=O)c1nc(-c2cccc3sccc23)c(F)c(N)c1Cl [Compound 3.23],219 to 221,0 to 29,0 to 29,0 to 29,0 to 29,0 to 29,0 to 29,0 to 29,0 to 29,0 to 29,0 to 29,0 to 29,0 to 29,0 to 29,0 to 29,0 to 29,0 to 29,0 to 29,0 to 29,0 to 29,"pest or weed control at 70 g/ha [2, 9]: 0 to 29%; pest or weed control at 140 g/ha [2, 9]: 0 to 29%; pest or weed control at 35 g/ha [2, 10]: 0 to 29%; pest or weed control at 70 g/ha [2, 10]: 0 to 29%; pest or weed control at 140 g/ha [2, 10]: 0 to 29%; pest or weed control at 35 g/ha [2, 11]: 0 to 29%; pest or weed control at 70 g/ha [2, 11]: 0 to 29%; pest or weed control at 140 g/ha [2, 11]: 0 to 29%; pest or weed control at 35 g/ha [2, 12]: 0 to 29%; pest or weed control at 70 g/ha [2, 12]: 45 to 59%; pest or weed control at 140 g/ha [2, 12]: 85 to 94%; pest or weed control at 35 g/ha [2, 13]: 0 to 29%; pest or weed control at 70 g/ha [2, 13]: 0 to 29%; pest or weed control at 140 g/ha [2, 13]: 0 to 29%; pest or weed control at 35 g/ha [2, 14]: 0 to 29%; pest or weed control at 70 g/ha [2, 14]: 0 to 29%; pest or weed control at 140 g/ha [2, 14]: 0 to 29%"
"COC(=O)c1nc(-c2ccc3scnc3c2)c(F)c(N)c1Cl [Compound 6.01, Methyl 4-amino-6-(benzo[d]thiazol-5-yl)-3-chloro-5-fluoropicolinate]",216,45 to 59,45 to 59,45 to 59,0 to 29,45 to 59,60 to 74,0 to 29,0 to 29,0 to 29,0 to 29,0 to 29,0 to 29,0 to 29,0 to 29,0 to 29,0 to 29,0 to 29,0 to 29,85 to 94,"pest or weed control at 70 g/ha [2, 9]: 85 to 94%; pest or weed control at 140 g/ha [2, 9]: 85 to 94%; pest or weed control at 35 g/ha [2, 10]: 85 to 94%; pest or weed control at 70 g/ha [2, 10]: 95 to 100%; pest or weed control at 140 g/ha [2, 10]: 95 to 100%; pest or weed control at 35 g/ha [2, 11]: 95 to 100%; pest or weed control at 70 g/ha [2, 11]: 95 to 100%; pest or weed control at 140 g/ha [2, 11]: 95 to 100%; pest or weed control at 35 g/ha [2, 12]: 95 to 100%; pest or weed control at 70 g/ha [2, 12]: 95 to 100%; pest or weed control at 140 g/ha [2, 12]: 95 to 100%; pest or weed control at 35 g/ha [2, 13]: 0 to 29%; pest or weed control at 70 g/ha [2, 13]: 85 to 94%; pest or weed control at 140 g/ha [2, 13]: 95 to 100%; pest or weed control at 35 g/ha [2, 14]: 85 to 94%; pest or weed control at 70 g/ha [2, 14]: 85 to 94%; pest or weed control at 140 g/ha [2, 14]: 85 to 94%"
COC(=O)c1nc(-c2cccc3ccsc23)c(F)c(N)c1Cl [Compound 3.24],121 to 123,0 to 29,0 to 29,0 to 29,0 to 29,0 to 29,0 to 29,0 to 29,0 to 29,0 to 29,0 to 29,0 to 29,0 to 29,0 to 29,0 to 29,0 to 29,0 to 29,0 to 29,0 to 29,0 to 29,"pest or weed control at 70 g/ha [2, 9]: 0 to 29%; pest or weed control at 140 g/ha [2, 9]: 0 to 29%; pest or weed control at 35 g/ha [2, 10]: 85 to 94%; pest or weed control at 70 g/ha [2, 10]: 85 to 94%; pest or weed control at 140 g/ha [2, 10]: 95 to 100%; pest or weed control at 35 g/ha [2, 11]: 45 to 59%; pest or weed control at 70 g/ha [2, 11]: 45 to 59%; pest or weed control at 140 g/ha [2, 11]: 45 to 59%; pest or weed control at 35 g/ha [2, 12]: 85 to 94%; pest or weed control at 70 g/ha [2, 12]: 95 to 100%; pest or weed control at 140 g/ha [2, 12]: 95 to 100%; pest or weed control at 35 g/ha [2, 13]: 0 to 29%; pest or weed control at 70 g/ha [2, 13]: 0 to 29%; pest or weed control at 140 g/ha [2, 13]: 0 to 29%; pest or weed control at 35 g/ha [2, 14]: 60 to 74%; pest or weed control at 70 g/ha [2, 14]: 60 to 74%; pest or weed control at 140 g/ha [2, 14]: 85 to 94%"
